Reference: patent US12559750B2, “Methods and compositions for treatment of polycystic kidney disease” (Regulus Therapeutics Inc., priority 2021, dated 2026)

Key:
AMPA-R = assay: [3H]AMPA radioligand binding assay on rat brain synaptic membranes; conditions: for % Inhibition @ Concentration 100 uM: Table 8 (3′-terminal nucleobase/sugar variants); for % Inhibition @ Concentration 0.1 uM: Table 8, 0.1 uM; for % Inhibition @ Concentration 1 uM: Table 8, 1 uM; for % Inhibition @ Concentration 10 uM: Table 8, 10 uM;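 as to all read-outs here: competition binding in which test compounds at rising concentrations displace [3H]AMPA from AMPA-R on rat brain synaptic membranes, with reduced bound radioligand as read-out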
AMPA-R (GluA1/GluA4) = biological target: T1, AMPA-R (GluA1/GluA4) (Homo sapiens, UniProt P42261+P48058); assay: Manual whole-cell patch clamp, ChanTest GluA1/GluA4 EZCells; type: cell-based
T1 construct: host or cells: ChanTest GluA1/GluA4 EZCells
Description: To evaluate functional antagonism of anti-miR-17 oligonucleotides towards the AMPA-R, certain oligonucleotides were tested using the manual whole-cell patch clamp technique, which records membrane currents as a measure of AMPA-R activity.
Manual whole-cell patch clamp studies were performed by Metrion Biosciences (Cambridge, UK). Whole-cell voltage clamp experiments were performed at room temperature (18-21° C.) using an EPC10 patch clamp amplifier using Patchmaster software (HEKA Elektronik). Glass patch pipettes were fabricated from borosilicate glass capillaries (Harvard Apparatus) to resistances between 1.4 and 2.5 MΩ. Membrane currents were recorded using the whole-cell patch clamp technique. ChanTest® GluA1/GluA4 EZCells were clamped at a holding potential of −80 mV and membrane currents elicited by 10 μM(S)-AMPA delivered using a VC38 perfusion system (ALA Scientific Instruments). The […] current amplitude values were measured with each application of 10 μM(S)-AMPA. The fractional change of current amplitude produced by each concentration of compound was calculated relative to the control current (pre-compound) and expressed as percentage change (% inhibition) for each cell. RGLS4326 was tested in a separate study from all other compounds in Table 6.

miR-17 [1] = assay: miR-17 luciferase sensor assay in HeLa cells; type: cell-based; conditions: for EC50: HeLa cells, 18- to 24-hour transfection
Description: The in vitro potency of certain compounds was evaluated using a miR-17 luciferase sensor assay which uses a luciferase reporter vector for miR-17, with two fully complementary miR-17 binding sites in tandem in the 3′-UTR of the luciferase gene. HeLa cells were co-transfected with the luciferase reporter vector and an exogenous miR-17-expression vector that acted to repress the luciferase signal.

miR-17 [2] = assay: miR-17 PD-Sig in mouse kidney cell lines; type: cell-based
Description: The activity of certain compounds was evaluated using a mouse miR-17 Pharmacodynamic-Signature (miR-17 PD-Sig), which consists of the expression of 18 unique miR-17 target genes normalized by six reference housekeeping genes, to provide an unbiased and comprehensive assessment of miR-17 activity. The mouse miR-17 PD-Sig score was the calculated average of the 18 genes' individual log 2 fold changes (normalized by six housekeeping genes) compared to mock transfection (Lee et al., Nat. Commun., 2019, 10, 4148).
The PD-Sig for RGLS4326 in mIMCD3 cells (77.2, indicated by “*”) was not generated in this experiment; the value in Table 14 is that reported by Lee et al., Nat. Commun., 2019, 10, 4148. Blank cells in the table indicate that a compound was not tested in a particular cell line.

miR-17 [3] = assay: miR-17 PD-Sig in human kidney cell lines; type: cell-based
miR-17 [4] = assay: microRNA polysome shift assay (miPSA) in kidney of wild type mice; type: in vivo, mouse; set-up: scale not given here; conditions: seven days later
Description: In vivo potency was evaluated using the microRNA polysome shift assay (miPSA). This assay was used to determine the extent to which compounds directly engage the miR-17 target in the kidney in normal and PKD mice. The miPSA relies on the principle that active miRNAs bind to their mRNA targets in translationally active high molecular weight (HMW) polysomes, whereas the inhibited miRNAs reside in the low MW (LMW) polysomes. Treatment with anti-miR results in a shift of the microRNA from HMW polysomes to LMW polysomes. Thus, the miPSA provides a direct measurement of microRNA target engagement by a complementary anti-miR (Androsavich et al., Nucleic Acids Research, 2015, 44: e13).
Wild type mice were administered a single dose of 0.3 mg/kg, 3 mg/kg, or 30 mg/kg. Kidney tissue was collected seven days later and subjected to the miPSA. The mean displacement score for each treatment is shown in Table 15 (PBS, n=17; RGLS4326 30 mg/kg, n=10; all other treatments, n=4-5). The tested oligonucleotides displaced miR-17 from translationally active polysome (as measured by miPSA) in normal mouse kidneys.

[5] = test system: KspCre/Pkd1F/RC (Pkd1-F/RC) mice; assay: Efficacy in Pkd1-F/RC mouse model of ADPKD; type: in vivo; conditions: 20 mg/kg SC on days 8, 10, 12, 15 of age; for Mean BW/KW Ratio / Mean Serum BUN / Mean Serum Creatine: sacrificed at 18 days
Description: Mice were sacrificed at 18 days of age, and kidney weight, body weight, cyst index, serum creatinine level, and blood urea nitrogen (BUN) level were measured. BUN level is a marker of kidney function. A higher BUN level correlates with poorer kidney function, thus a reduction in BUN level is an indicator of reduced kidney injury and damage and improved function. Statistical significance was calculated by one-way ANOVA with Dunnett's multiple correction.

mice = assay: High-dose subcutaneous mouse toxicity studies, CNS-related findings; conditions: for CNS toxicity in high-dose mouse toxicity studies: single 2000 mg/kg and/or escalating doses 100, 450, 2000 mg/kg, in words
Description: Each compound was tested in a single dose at 2000 mg/kg, and at escalating doses (100, 450, and 2000 mg/kg).

AMPA glutamate receptor = assay: Patch clamp activity (RGLS4326, off-target follow-up); type: cell-based
Description: To identify potential candidates for off-target pharmacology, a panel of 174 targets including G-protein coupled receptors, transporters, ion channels, nuclear receptors, and cytokine receptors was evaluated in vitro for possible interactions with RGLS4326. […] AMPA receptors are ion channels on excitatory synapses in the CNS that mediate fast excitatory neurotransmission and, therefore, are key components of all neuronal networks. Such an interaction with the AMPA receptor could explain the CNS-mediated findings observed at high doses of RGLS4326 in nonclinical toxicology models.

T1 sequence (P42261 19-906): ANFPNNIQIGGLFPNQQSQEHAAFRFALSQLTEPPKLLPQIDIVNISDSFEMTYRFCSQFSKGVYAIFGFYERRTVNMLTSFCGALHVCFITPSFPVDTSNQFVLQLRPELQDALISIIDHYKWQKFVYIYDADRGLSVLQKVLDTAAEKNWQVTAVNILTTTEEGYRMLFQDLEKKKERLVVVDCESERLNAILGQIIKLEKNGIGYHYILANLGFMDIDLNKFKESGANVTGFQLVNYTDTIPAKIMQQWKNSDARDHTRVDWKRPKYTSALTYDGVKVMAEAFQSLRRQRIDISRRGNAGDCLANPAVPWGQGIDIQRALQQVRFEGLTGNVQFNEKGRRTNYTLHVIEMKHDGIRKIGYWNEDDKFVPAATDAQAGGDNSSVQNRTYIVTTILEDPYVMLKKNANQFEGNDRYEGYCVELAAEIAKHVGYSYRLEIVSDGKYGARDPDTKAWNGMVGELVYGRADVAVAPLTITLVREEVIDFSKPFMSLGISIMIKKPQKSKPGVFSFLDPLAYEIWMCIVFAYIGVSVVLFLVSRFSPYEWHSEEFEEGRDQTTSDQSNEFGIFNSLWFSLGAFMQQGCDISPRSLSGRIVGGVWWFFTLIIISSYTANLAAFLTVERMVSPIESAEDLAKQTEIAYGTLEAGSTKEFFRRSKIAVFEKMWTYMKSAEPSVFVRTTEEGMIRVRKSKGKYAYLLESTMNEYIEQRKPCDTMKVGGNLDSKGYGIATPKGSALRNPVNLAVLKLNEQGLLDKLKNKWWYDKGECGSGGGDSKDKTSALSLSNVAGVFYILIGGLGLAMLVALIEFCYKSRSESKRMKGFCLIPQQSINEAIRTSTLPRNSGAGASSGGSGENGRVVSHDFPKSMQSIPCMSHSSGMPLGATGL
T1 sequence (P48058 21-902): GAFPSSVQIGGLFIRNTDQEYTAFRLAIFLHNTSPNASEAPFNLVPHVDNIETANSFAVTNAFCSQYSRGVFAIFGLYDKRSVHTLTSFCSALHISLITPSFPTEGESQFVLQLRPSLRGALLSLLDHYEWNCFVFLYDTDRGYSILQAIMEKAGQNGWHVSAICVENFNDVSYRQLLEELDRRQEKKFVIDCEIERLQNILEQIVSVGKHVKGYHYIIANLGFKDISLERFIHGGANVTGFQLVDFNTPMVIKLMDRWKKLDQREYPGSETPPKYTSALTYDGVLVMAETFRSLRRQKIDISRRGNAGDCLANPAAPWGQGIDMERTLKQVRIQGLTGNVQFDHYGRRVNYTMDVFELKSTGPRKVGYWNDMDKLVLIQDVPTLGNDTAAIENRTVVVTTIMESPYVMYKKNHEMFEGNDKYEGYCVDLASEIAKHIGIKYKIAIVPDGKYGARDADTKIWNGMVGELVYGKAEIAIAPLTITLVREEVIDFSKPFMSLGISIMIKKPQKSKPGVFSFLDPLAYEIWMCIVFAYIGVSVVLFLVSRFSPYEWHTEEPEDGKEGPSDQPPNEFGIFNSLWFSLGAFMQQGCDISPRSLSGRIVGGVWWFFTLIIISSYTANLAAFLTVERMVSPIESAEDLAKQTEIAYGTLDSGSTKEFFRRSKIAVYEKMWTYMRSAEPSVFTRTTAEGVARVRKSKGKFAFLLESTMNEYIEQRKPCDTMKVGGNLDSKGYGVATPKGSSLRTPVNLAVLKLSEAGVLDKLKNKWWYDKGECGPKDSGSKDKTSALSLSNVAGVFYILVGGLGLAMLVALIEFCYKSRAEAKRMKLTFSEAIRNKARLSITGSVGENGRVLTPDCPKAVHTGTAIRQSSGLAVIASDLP

ASGSCMAFCFUFUMUSAS [RG-NG-1015]
IC50 (AMPA-R; Experiment #2): > 100000 nM | % Inhibition @ 0.1 uM (AMPA-R; Experiment #2, 0.1 uM): 2.3% | % Inhibition @ 1 uM (AMPA-R; Experiment #2, 1 uM): 11% | % Inhibition @ 10 uM (AMPA-R; Experiment #2, 10 uM): 6.5% | % Inhibition @ 100 uM (AMPA-R; Experiment #2, 100 uM): 19.9% | IC50 (AMPA-R; Table 8): ≥ 100000 nM | % Inhibition @ Concentration 100 uM (AMPA-R): 5.6% | % Inhibition @ Concentration 0.1 uM (AMPA-R): −0.8% | % Inhibition @ Concentration 1 uM (AMPA-R): −10.3% | % Inhibition @ Concentration 10 uM (AMPA-R): −7% | % Inhibition on membrane currents evoked with 10 uM (s)-AMPA (Mean ± SD) (AMPA-R (GluA1/GluA4); 0.3 uM compound): 16.0 ± 5.0% | % Inhibition on membrane currents evoked with 10 uM (s)-AMPA (Mean ± SD) (AMPA-R (GluA1/GluA4); 3 uM compound): 39.5 ± 5.4% | functional antagonism towards AMPA-R relative to RGLS4326 (AMPA-R (GluA1/GluA4); in words): reduced functional antagonism towards AMPA-R | Log2FC (37.5 nM) (miR-17 [1]): 2.51 | EC50 (miR-17 [1]): 22.4 nM | EC50 (miR-17 [2]; D52B5, mouse, PKD): 82.4 nM | EC50 (miR-17 [2]; mIMCD3, mouse, Normal): 168 nM | EC50 (miR-17 [3]; HK-2, human, Normal): 55.6 nM | EC50 (miR-17 [3]; WT9-7, human, PKD): 21.2 nM | miPSA Displacement Score, Mean (miR-17 [4]; single dose 3 mg/kg): 2.562 | miPSA Displacement Score, Mean (miR-17 [4]; single dose 30 mg/kg): 2.718 | miPSA Displacement Score, Mean (miR-17 [4]; single dose 0.3 m/kg): 2.238 | BW/KW Ratio, Mean Difference vs. PBS [5]: −48.79 | Serum BUN, Mean Difference vs. PBS [5]: −20.21 | Serum Creatine, Mean Difference vs. PBS [5]: −0.034 | Mean BW/KW Ratio [5]: 16.83 | Mean Serum BUN [5]: 22.26 | Mean Serum Creatine [5]: 0.1279 | CNS-related findings noted (mice; SC 2000 mg/kg, Single): No | CNS-related findings noted (mice; SC 100, 450, 2000 mg/kg/dose, QDx4): No | CNS toxicity in high-dose mouse toxicity studies (mice): no CNS-toxicity were observed

ASGSCMAFCFUFUMUSGS [RGLS4326, reference compound]
IC50 (AMPA-R; Experiment #1): 700 nM | % Inhibition @ 0.1 uM (AMPA-R; Experiment #1, 0.1 uM): 17.6% | % Inhibition @ 1 uM (AMPA-R; Experiment #1, 1 uM): 55.5% | % Inhibition @ 10 uM (AMPA-R; Experiment #1, 10 uM): 93% | % Inhibition @ 100 uM (AMPA-R; Experiment #1, 100 uM): 104.1% | IC50 (AMPA-R; Experiment #2): 270 nM | % Inhibition @ 0.1 uM (AMPA-R; Experiment #2, 0.1 uM): 31.5% | % Inhibition @ 1 uM (AMPA-R; Experiment #2, 1 uM): 73.1% | % Inhibition @ 10 uM (AMPA-R; Experiment #2, 10 uM): 93.6% | % Inhibition @ 100 uM (AMPA-R; Experiment #2, 100 uM): 96.8% | IC50 (AMPA-R; Experiment #3): 780 nM | % Inhibition @ 0.1 uM (AMPA-R; Experiment #3, 0.1 uM): 14.6% | % Inhibition @ 1 uM (AMPA-R; Experiment #3, 1 uM): 55.8% | % Inhibition @ 10 uM (AMPA-R; Experiment #3, 10 uM): 89% | % Inhibition @ 100 uM (AMPA-R; Experiment #3, 100 uM): 97.2% | IC50 (AMPA-R; Table 8): 1610 nM | % Inhibition @ Concentration 100 uM (AMPA-R): 99.7% | % Inhibition @ Concentration 0.1 uM (AMPA-R): −0.1% | % Inhibition @ Concentration 1 uM (AMPA-R): 40.8% | % Inhibition @ Concentration 10 uM (AMPA-R): 83.5% | % Inhibition on membrane currents evoked with 10 uM (s)-AMPA (Mean ± SD) (AMPA-R (GluA1/GluA4); 0.3 uM compound): 46.9 ± 9.8% | % Inhibition on membrane currents evoked with 10 uM (s)-AMPA (Mean ± SD) (AMPA-R (GluA1/GluA4); 3 uM compound): 87.4 ± 7.9% | functional IC50 based on patch clamp activity (AMPA glutamate receptor): 0.9 to 1.8 µg/mL | IC50 (AMPA glutamate receptor; read-out: functional IC50 based on patch clamp activity): 300 to 600 nM | Log2FC (37.5 nM) (miR-17 [1]): 2.70 | EC50 (miR-17 [1]): 18.5 nM | EC50 (miR-17 [2]; D52B5, mouse, PKD): 92.8 nM | EC50 (miR-17 [3]; HK-2, human, Normal): 47.8 nM | EC50 (miR-17 [3]; WT9-7, human, PKD): 17.3 nM | miPSA Displacement Score, Mean (miR-17 [4]; single dose 3 mg/kg): 2.247 | miPSA Displacement Score, Mean (miR-17 [4]; single dose 30 mg/kg): 2.362 | miPSA Displacement Score, Mean (miR-17 [4]; single dose 0.3 m/kg): 1.846 | BW/KW Ratio, Mean Difference vs. PBS [5]: −48.8 | Serum BUN, Mean Difference vs. PBS [5]: −20.06 | Serum Creatine, Mean Difference vs. PBS [5]: −0.03463 | Mean BW/KW Ratio [5]: 16.81 | Mean Serum BUN [5]: 22.41 | Mean Serum Creatine [5]: 0.1273 | CNS toxicity in high-dose mouse toxicity studies (mice): ataxia, lethargy, and in the case of RGLS4326, unconsciousness at the highest dose
